From patent US20260070945A1, “MACROCYCLIC IMMUNOMODULATORS” (Bristol-Myers Squibb Company, priority 2022, published 2026)
Where a SMILES comes first, the peptide text is derived from it. Bridges are numbered along the chain shown (N, C = ends). [ ]: non-standard residue; d: D form. The star is where a group is joined. ξ: configuration not given here. Phe(4-COOH) = N[C@@H](Cc1ccc(C(=O)O)cc1)C(=O)O; Bip = N[C@@H](Cc1ccc(-c2ccccc2)cc1)C(=O)O; Phe(3-Me) = Cc1cccc(C[C@H](N)C(=O)O)c1; 4Pal = N[C@@H](Cc1ccncc1)C(=O)O; Cha = N[C@@H](CC1CCCCC1)C(=O)O; Ile(3ξ) = CCC(C)[C@H](N)C(=O)O; Thr(3ξ) = CC(O)[C@H](N)C(=O)O; NMeS = CN[C@@H](CO)C(=O)O; Carboxymethyl = O=C(O)C*; NMeA = CN[C@@H](C)C(=O)O; Aun = NCCCCCCCCCCC(=O)O; Dab = NCC[C@H](N)C(=O)O; AEEA = NCCOCCOCC(=O)O; Sar = CNCC(=O)O

molecular target: T1, PD-1/PD-L1 interaction (PE-labeled human PD-L1-Ig binding to Jurkat cell line over-expressing human PD-1) (Homo sapiens, UniProt Q15116); assay: Jurkat-PD-1 Cell Binding High-Content Screening Assay (CBA); settings: Jurkat-hPD-1 cells, PE-labeled PD-L1-Ig 20 nM final; read-out: Jurkat HPD1 PDL1 IC50
T1 construct: expressed in transfected cells; host or cells: Jurkat
In short: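 Jurkat cells overexpressing human PD-1 (8×10^3/well, DMEM + 10% FCS) preincubated with compound 2 h at 37 °C, then PE-labelled human PD-L1-Ig (20 nM final) for 1 h. Cells fixed in paraformaldehyde with Hoechst 33342; bound PD-L1 quantified by high-content imaging.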

T1 sequence (Q15116 25-288): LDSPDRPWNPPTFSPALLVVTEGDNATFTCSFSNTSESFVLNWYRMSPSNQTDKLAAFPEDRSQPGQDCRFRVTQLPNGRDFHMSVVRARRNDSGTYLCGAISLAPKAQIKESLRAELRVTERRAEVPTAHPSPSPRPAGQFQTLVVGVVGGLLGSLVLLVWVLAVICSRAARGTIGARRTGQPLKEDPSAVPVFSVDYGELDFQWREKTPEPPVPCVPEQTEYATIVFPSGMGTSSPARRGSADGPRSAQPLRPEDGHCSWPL

Row | Compound | IC50
1 | Cc1cccc(C[C@@H]2NC(=O)[C@H](CC(=O)O)NC(=O)[C@H](Cc3ccc(OCC(=O)O)cc3)NC(=O)[C@H](CC(N)=O)NC(=O)CSC[C@@H](C(=O)N(C)CC(=O)NCCCCCCCCCCC(=O)O)NC(=O)[C@H](CCC(=O)O)NC(=O)[C@H](C(C)C)NC(=O)[C@H](CC3CCCCC3)NC(=O)[C@H](CCN)NC(=O)[C@@H](CC(C)C)NC(=O)[C@H](C)N(C)C(=O)[C@H](C(C)C)NC(=O)[C@H](Cc3ccc(-c4ccccc4)cc3)NC(=O)[C@H](Cc3ccc(O)cc3)NC2=O)c1 [Example 2266] ({CH2CO}-NY(Carboxymethyl)D[Phe(3-Me)]Y[Bip]V[NMeA][dL][Dab][Cha]VEC[Sar][Aun]-OH; thioether N-14) | 334 nM
2 | Cc1cccc(C[C@@H]2NC(=O)[C@H](CC(=O)O)NC(=O)[C@H](Cc3ccc(OCC(=O)O)cc3)NC(=O)[C@H](CCCNC(=N)N)NC(=O)CSC[C@@H](C(=O)N[C@@H](CCN)C(=O)NCCCCCCCCCCC(=O)O)NC(=O)[C@H](CCC(N)=O)NC(=O)[C@H](C(C)C)NC(=O)[C@H](CC3CCCCC3)NC(=O)[C@H](CCN)NC(=O)[C@@H](CC(C)C)NC(=O)[C@H](C)N(C)C(=O)[C@H](Cc3ccc(O)cc3)NC(=O)[C@H](Cc3ccc(-c4ccccc4)cc3)NC(=O)[C@H](C(C)C)NC2=O)c1 [Example 2269] ({CH2CO}-RY(Carboxymethyl)D[Phe(3-Me)]V[Bip]Y[NMeA][dL][Dab][Cha]VQC[Dab][Aun]-OH; thioether N-14) | 11.9 nM
3 | Cc1cccc(C[C@@H]2NC(=O)[C@H](CC(=O)O)NC(=O)[C@H](Cc3ccc(OCC(=O)O)cc3)NC(=O)[C@H](C(C)O)NC(=O)CSC[C@@H](C(=O)N(C)CC(=O)NCCOCCOCC(=O)NCCCCCCCCCCC(=O)O)NC(=O)[C@H](CCC(=O)O)NC(=O)[C@H](C(C)C)NC(=O)[C@H](CC3CCCCC3)NC(=O)[C@H](CCN)NC(=O)[C@@H](CC(C)C)NC(=O)[C@H](C)N(C)C(=O)[C@H](Cc3ccc(O)cc3)NC(=O)[C@H](Cc3ccc(-c4ccccc4)cc3)NC(=O)[C@H](C(C)C)NC2=O)c1 (stereo partly drawn) [Example 2270] ({CH2CO}-[Thr(3ξ)]Y(Carboxymethyl)D[Phe(3-Me)]V[Bip]Y[NMeA][dL][Dab][Cha]VEC[Sar][AEEA][Aun]-OH; thioether N-14) | 802 nM
4 | CC(=O)NCCCC[C@@H]1NC(=O)[C@H](C(C)C)NC(=O)[C@H](CC2CCCCC2)NC(=O)[C@H](CCN)NC(=O)[C@@H](CC(C)C)NC(=O)[C@H](C)N(C)C(=O)[C@H](Cc2ccc(O)cc2)NC(=O)[C@H](Cc2ccc(-c3ccccc3)cc2)NC(=O)[C@H](C(C)C)NC(=O)[C@H](Cc2cccc(C)c2)NC(=O)[C@H](CC(=O)O)NC(=O)[C@H](Cc2ccc(OCC(=O)O)cc2)NC(=O)[C@H](CC(N)=O)NC(=O)CSC[C@@H](C(=O)N(C)CC(=O)NCCCCCCCCCCC(=O)O)NC1=O [Example 2271] ({CH2CO}-NY(Carboxymethyl)D[Phe(3-Me)]V[Bip]Y[NMeA][dL][Dab][Cha]VK(Ac)C[Sar][Aun]-OH; thioether N-14) | 260 nM
5 | CC(=O)NCCCC[C@@H]1NC(=O)[C@H](C(C)C)NC(=O)[C@H](CC2CCCCC2)NC(=O)[C@H](CCN)NC(=O)[C@@H](CC(C)C)NC(=O)[C@H](C)N(C)C(=O)[C@H](Cc2ccc(O)cc2)NC(=O)[C@H](Cc2ccc(-c3ccccc3)cc2)NC(=O)[C@H](C(C)C)NC(=O)[C@H](Cc2cccc(C)c2)NC(=O)[C@H](CC(=O)O)NC(=O)[C@H](Cc2ccc(OCC(=O)O)cc2)NC(=O)[C@H](Cc2cnc[nH]2)NC(=O)CSC[C@@H](C(=O)N(C)CC(=O)NCCCCCCCCCCC(=O)O)NC1=O [Example 2272] ({CH2CO}-HY(Carboxymethyl)D[Phe(3-Me)]V[Bip]Y[NMeA][dL][Dab][Cha]VK(Ac)C[Sar][Aun]-OH; thioether N-14) | 231 nM
6 | CC(=O)NCCCC[C@@H]1NC(=O)[C@H](C(C)C)NC(=O)[C@H](CC2CCCCC2)NC(=O)[C@H](CCN)NC(=O)[C@@H](CC(C)C)NC(=O)[C@H](C)N(C)C(=O)[C@H](Cc2ccc(O)cc2)NC(=O)[C@H](Cc2ccc(-c3ccccc3)cc2)NC(=O)[C@H](C(C)C)NC(=O)[C@H](Cc2cccc(C)c2)NC(=O)[C@H](CC(=O)O)NC(=O)[C@H](Cc2ccc(OCC(=O)O)cc2)NC(=O)[C@H](CCCNC(=N)N)NC(=O)CSC[C@@H](C(=O)N(C)CC(=O)NCCCCCCCCCCC(=O)O)NC1=O [Example 2273] ({CH2CO}-RY(Carboxymethyl)D[Phe(3-Me)]V[Bip]Y[NMeA][dL][Dab][Cha]VK(Ac)C[Sar][Aun]-OH; thioether N-14) | 321 nM
7 | CC(=O)NCCCC[C@@H]1NC(=O)[C@H](C(C)C)NC(=O)[C@H](CC2CCCCC2)NC(=O)[C@H](CCN)NC(=O)[C@@H](CC(C)C)NC(=O)[C@H](C)N(C)C(=O)[C@H](Cc2ccc(O)cc2)NC(=O)[C@H](Cc2ccc(-c3ccccc3)cc2)NC(=O)[C@H](C(C)C)NC(=O)[C@H](Cc2cccc(C)c2)NC(=O)[C@H](CC(=O)O)NC(=O)[C@H](Cc2ccc(OCC(=O)O)cc2)NC(=O)[C@H](C(C)O)NC(=O)CSC[C@@H](C(=O)N(C)CC(=O)NCCCCCCCCCCC(=O)O)NC1=O (stereo partly drawn) [Example 2274] ({CH2CO}-[Thr(3ξ)]Y(Carboxymethyl)D[Phe(3-Me)]V[Bip]Y[NMeA][dL][Dab][Cha]VK(Ac)C[Sar][Aun]-OH; thioether N-14) | 85.5 nM
8 | CC(=O)NCCCC[C@@H]1NC(=O)[C@H](C(C)C)NC(=O)[C@H](CC2CCCCC2)NC(=O)[C@H](CCN)NC(=O)[C@@H](CC(C)C)NC(=O)[C@H](C)N(C)C(=O)[C@H](Cc2ccc(O)cc2)NC(=O)[C@H](Cc2ccc(-c3ccccc3)cc2)NC(=O)[C@H](C(C)C)NC(=O)[C@H](Cc2cccc(C)c2)NC(=O)[C@H](CC(=O)O)NC(=O)[C@H](Cc2ccc(OCC(=O)O)cc2)NC(=O)[C@H](Cc2ccc(O)cc2)NC(=O)CSC[C@@H](C(=O)N(C)CC(=O)NCCCCCCCCCCC(=O)O)NC1=O [Example 2275] ({CH2CO}-YY(Carboxymethyl)D[Phe(3-Me)]V[Bip]Y[NMeA][dL][Dab][Cha]VK(Ac)C[Sar][Aun]-OH; thioether N-14) | 282 nM
9 | CC(=O)NCCCC[C@@H]1NC(=O)[C@H](C(C)C)NC(=O)[C@H](CC2CCCCC2)NC(=O)[C@H](CCN)NC(=O)[C@@H](CC(C)C)NC(=O)[C@H](C)N(C)C(=O)[C@H](Cc2ccc(O)cc2)NC(=O)[C@H](Cc2ccc(-c3ccccc3)cc2)NC(=O)[C@H](C(C)C)NC(=O)[C@H](Cc2cccc(C)c2)NC(=O)[C@H](CC(=O)O)NC(=O)[C@H](Cc2ccc(OCC(=O)O)cc2)NC(=O)[C@H](Cc2ccncc2)NC(=O)CSC[C@@H](C(=O)N(C)CC(=O)NCCCCCCCCCCC(=O)O)NC1=O [Example 2276] ({CH2CO}-[4Pal]Y(Carboxymethyl)D[Phe(3-Me)]V[Bip]Y[NMeA][dL][Dab][Cha]VK(Ac)C[Sar][Aun]-OH; thioether N-14) | 174 nM
10 | Cc1cccc(C[C@@H]2NC(=O)[C@H](CC(=O)O)NC(=O)[C@H](Cc3ccc(OCC(=O)O)cc3)NC(=O)[C@H](CO)N(C)C(=O)CSC[C@@H](C(=O)NCCOCCOCC(=O)NCCCCCCCCCCC(=O)O)NC(=O)[C@H](CCCNC(=N)N)NC(=O)[C@H](C(C)C)NC(=O)[C@H](CC3CCCCC3)NC(=O)[C@H](CCN)NC(=O)[C@@H](CC(C)C)NC(=O)[C@H](C)N(C)C(=O)[C@H](C(C)C)NC(=O)[C@H](Cc3ccc(-c4ccccc4)cc3)NC(=O)[C@H](CC(C)C)NC2=O)c1 [Example 2277] ({CH2CO}-[NMeS]Y(Carboxymethyl)D[Phe(3-Me)]L[Bip]V[NMeA][dL][Dab][Cha]VRC[AEEA][Aun]-OH; thioether N-14) | 18.7 nM
11 | Cc1cccc(C[C@@H]2NC(=O)[C@H](CC(=O)O)NC(=O)[C@H](Cc3ccc(C(=O)O)cc3)NC(=O)[C@H](Cc3ccc(OCC(=O)O)cc3)NC(=O)CSC[C@@H](C(=O)NCCOCCOCC(=O)NCCCCCCCCCCC(=O)O)NC(=O)[C@H](CCCNC(=N)N)NC(=O)[C@H](C(C)C)NC(=O)[C@H](CC3CCCCC3)NC(=O)[C@H](CCN)NC(=O)[C@@H](CC(C)C)NC(=O)[C@H](CO)N(C)C(=O)[C@H](C(C)C)NC(=O)[C@H](Cc3ccc(-c4ccccc4)cc3)NC(=O)[C@H](CC(C)C)NC2=O)c1 [Example 2278] ({CH2CO}-Y(Carboxymethyl)[Phe(4-COOH)]D[Phe(3-Me)]L[Bip]V[NMeS][dL][Dab][Cha]VRC[AEEA][Aun]-OH; thioether N-14) | 34.2 nM
12 | CCC(C)[C@@H]1NC(=O)[C@H](Cc2ccc(-c3ccccc3)cc2)NC(=O)[C@H](CC(C)C)NC(=O)[C@H](Cc2c[nH]c3ccccc23)NC(=O)[C@H](CC(=O)O)NC(=O)[C@H](Cc2ccc(C(=O)O)cc2)NC(=O)[C@H](Cc2ccc(OCC(=O)O)cc2)NC(=O)CSC[C@@H](C(=O)NCCOCCOCC(=O)NCCCCCCCCCCC(=O)O)NC(=O)[C@H](CCCNC(=N)N)NC(=O)[C@H](C(C)C)NC(=O)[C@H](CC2CCCCC2)NC(=O)[C@H](CCN)NC(=O)[C@@H](CC(C)C)NC(=O)[C@H](CO)N(C)C1=O (stereo partly drawn) [Example 2279] ({CH2CO}-Y(Carboxymethyl)[Phe(4-COOH)]DWL[Bip][Ile(3ξ)][NMeS][dL][Dab][Cha]VRC[AEEA][Aun]-OH; thioether N-14) | 21.1 nM
13 | Cc1cccc(C[C@@H]2NC(=O)[C@H](CC(=O)O)NC(=O)[C@H](Cc3ccc(OCC(=O)O)cc3)NC(=O)[C@H](Cc3ccc(OCC(=O)O)cc3)NC(=O)CSC[C@@H](C(=O)NCCOCCOCC(=O)NCCCCCCCCCCC(=O)O)NC(=O)[C@H](CCCNC(=N)N)NC(=O)[C@H](C(C)C)NC(=O)[C@H](CC3CCCCC3)NC(=O)[C@H](CCN)NC(=O)[C@@H](CC(C)C)NC(=O)[C@H](C)N(C)C(=O)[C@H](Cc3ccc(O)cc3)NC(=O)[C@H](Cc3ccc(-c4ccccc4)cc3)NC(=O)[C@H](CC(C)C)NC2=O)c1 [Example 2280] ({CH2CO}-Y(Carboxymethyl)Y(Carboxymethyl)D[Phe(3-Me)]L[Bip]Y[NMeA][dL][Dab][Cha]VRC[AEEA][Aun]-OH; thioether N-14) | 104 nM
